# Read-outs that look alike come from different tables or passages of the source.
# Key:
# [1] = at lower temperatures (below the enantiotropic transition temperature)
# hypertensive patients = conditions: despite continued ACE inhibition; cited from earlier work
# [2] = tested on: patients with severe HF (NYHA Class IV); conditions: enalapril plus diuretics compared to placebo plus diuretics; cited from earlier work
# [3] = solubility of eplerenone in crystallization solvents; assay type: physicochemical; conditions: organic solvent or mixture; room temperature; organic solvents used for crystallization
# [4] = tested on: patients with stable NYHA Class II-IV heart failure; assay: Biological Evaluation I: randomized, double-blind, placebo and active drug-controlled 12-week trial of eplerenone with ACE inhibitor and loop diuretic; conditions: for urinary aldosterone excretion, increase from baseline: 12 week visit; for plasma renin activity (PRA): drug therapy with ACE inhibitor and loop diuretic; for testosterone levels: in males
# [5] = tested on: patients alive at Day 3 with Killip class >I; conditions: patients randomized to lisinopril; ACE-I treatment stopped at 42 days, more than 50% continued long-term; cited from earlier work
# [6] = tested on: patients with clinical evidence of HF at any time after an AMI; conditions: cited from earlier work; for risk reduction in all cause mortality compared to placebo: p=0.002
# [7] = tested on: patients with impaired ejection fraction post AMI; conditions: cited from earlier work
# animal models = conditions: cited from earlier work
# hypertensive-rat cohort = conditions: spironolactone subcutaneously; cited from earlier work
# [8] = tested on: patients afflicted with congestive heart failure; conditions: coadministered with an ACE inhibitor; cited from earlier work
# [9] = tested on: patients with severe HF (NYHA Class III or IV); conditions: cited from earlier work
# [10] = tested on: patients with LV dysfunction 2 to 6 days following MI; conditions: cited from earlier work
# [11] = tested on: patients with myocardial infarction; conditions: patients with myocardial infarction receiving zofenopril; cited from earlier work
smiles,measurement,setting,value
COC(=O)[C@@H]1CC2=CC(=O)CC[C@]2(C)[C@@]23O[C@@H]2C[C@@]2(C)[C@@H](CC[C@@]24CCC(=O)O4)[C@H]13 [Form L],physical stability relative to Form H,[1],greater physical stability
C[C@H](CS)C(=O)N1CCC[C@H]1C(=O)O [captopril],plasma aldosterone,hypertensive patients,gradual return of plasma aldosterone to baseline levels
CCOC(=O)[C@H](CCc1ccccc1)N[C@@H](C)C(=O)N1CCC[C@H]1C(=O)O [enalapril],mortality at one year reduced,[2],31%
"COC(=O)[C@@H]1CC2=CC(=O)CC[C@]2(C)[C@@]23O[C@@H]2C[C@@]2(C)[C@@H](CC[C@@]24CCC(=O)O4)[C@H]13 [eplerenone, Pregn-4-ene-7,21-dicarboxylic acid, 9,11-epoxy-17-hydroxy-3-oxo-, γ-lactone, methyl ester, (7^α, 11^α, 17^α)-]",solubility,[3],5 to 200 mg/mL
same,"urinary aldosterone excretion, increase from baseline","[4]; 25 mg eplerenone QD, P>0.05",did not reach statistical significance
same,plasma renin activity (PRA),[4],significantly elevated
same,reduction in BNP,"[4]; eplerenone at 25 mg, all patients",highly significant
same,reduction in BNP,"[4]; eplerenone at 100 mg, all patients",highly significant
same,"urinary aldosterone excretion, increase from baseline",[4]; eplerenone dose of 50 mg,Greater increases
same,"urinary aldosterone excretion, increase from baseline",[4]; eplerenone dose of 100 mg,Greater increases
same,testosterone levels,[4],lack of effect
same,reduction in BNP,[4]; patients with high baseline BNP levels,even greater
NCCCC[C@H](N[C@@H](CCc1ccccc1)C(=O)O)C(=O)N1CCC[C@H]1C(=O)O [lisinopril],first-year mortality,[5],22%
CCOC(=O)[C@H](CCc1ccccc1)N[C@@H](C)C(=O)N1[C@H](C(=O)O)C[C@@H]2CCC[C@@H]21 [ramipril],first-year mortality rate in the active (ACE-I) arm,[6]; AIRE,16%
same,risk reduction in all cause mortality compared to placebo,[6]; AIRE,27%
same,reduction in the risk of developing severe resistant HF compared to placebo,"[6]; AIRE, p=0.017",23%
same,risk reduction in all cause mortality compared to placebo,[6]; AIREX long-term (three year) follow-up,36%
same,ventricular dilatation and decline of systolic dysfunction,[7],prevented ventricular dilatation and further decline of systolic dysfunction
CC(=O)S[C@@H]1CC2=CC(=O)CC[C@]2(C)[C@H]2CC[C@@]3(C)[C@@H](CC[C@@]34CCC(=O)O4)[C@H]12 [spironolactone],ventricular dilatation and decline of systolic dysfunction,[7],prevented ventricular dilatation and further decline of systolic dysfunction
same,myocardial fibrosis,animal models,prevents myocardial fibrosis
same,myocardial fibrosis,animal models; listed as Spironolactone,prevent fibrosis in animal models irrespective of the development of left ventricular hypertrophy and the presence of hypertension
same,fibrosis,hypertensive-rat cohort,prevent fibrosis
same,patients in whom highly effective,[8],13 of 16
same,reduction in mortality compared to placebo,[9]; as restated in the sample size discussion,> 30%
same,risk reduction for all cause mortality,"[9]; spironolactone 25 mg daily added to standard therapy (ACE-I and loop diuretic, with or without digoxin) vs standard therapy plus placebo, p<0.001",30%
same,lower frequency of hospitalization for worsening HF than placebo patients,[9]; spironolactone 25 mg daily added to standard therapy,35%
same,median increase in serum potassium concentration compared to placebo,[9]; spironolactone added to standard therapy,statistically but not clinically significant
same,plasma renin activity (PRA),[4],significantly elevated
same,testosterone levels,[4],significant increase
CCOC(=O)[C@H](CCc1ccccc1)N[C@@H](C)C(=O)N1[C@H](C(=O)O)C[C@H]2CCCC[C@@H]21 [trandolapril],first-year mortality rate in the active (ACE-I) arm,[10]; TRACE,23%
same,relative reduction in the risk of death compared to placebo,[10]; p=0.001,18%
same,reduction in the risk of progression to severe HF compared to placebo,[10]; p=0.003,29%
C[C@H](CSC(=O)c1ccccc1)C(=O)N1C[C@@H](Sc2ccccc2)C[C@H]1C(=O)O [zofenopril],plasma aldosterone,[11],A similar effect

# From US20050250748A1, “Combination therapy of angiotensin converting enzyme inhibitor and eplerenone for treatment of cardiovascular disease” (G. D. Searle & Co., priority 1999, published 2005)
